Results reported in patent publication US10770169B2, “Method of providing a treatment to a subject based on a dynamic pathway map” (THE REGENTS OF THE UNIVERSITY OF CALIFORNIA, priority 2010, dated 2020).
Read-outs that look alike come from different tables or passages of the source.

Assays:
Format in all cases: cell-based, human
[1] = tested on: breast cancer cell lines with aberrant vs normal copy number; assay: Association of recurrent copy number changes and response (t-test on GI50); details: FDR p<0.2
From the text: We used a t-test to assess the association between recurrent copy number changes (at 8q24 (MYC), 11q13 (CCND1), 20q13 (STK15/AURKA)) and drug sensitivity. We combined into a single group cell lines with low or no amplification and compared them to cell lines with high amplification. […] Cell lines for which the GI50 was equal to the maximum concentration tested were omitted from analysis. We omitted compounds where any group had fewer than five samples.

[2] = tested on: panel of 55 breast cancer cell lines; assay: Cell growth inhibition assay (Cell Titer Glo, 72 h, 9 doses; GI50, TGI, LC50); details: Homo sapiens, read-out: GI50 (converted)
[3] = tested on: luminal, basal, claudin-low and ERBB2AMP breast cancer cell lines; assay: Associations of clinically relevant subtypes and response (non-parametric ANOVA or t-test on GI50 ranks)
Outline: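 GI50 values were compared between cell-line subtype groups by non-parametric ANOVA or t-test on ranks. P-values from three test sets were combined and FDR-corrected. Significant three-group effects were followed by post-hoc comparison of each group against all others, and FDR p<0.20 counted as significant.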

C/C(=C\c1csc(C)n1)[C@@H]1C[C@@H]2O[C@]2(C)CCC[C@H](C)[C@H](O)[C@@H](C)C(=O)C(C)(C)[C@@H](O)CC(=O)N1 [Ixabepilone]
association of response with homozygous deletion at 9p21 (CDKN2A) [1]: associated with response
GI50 ([2]; 600MPE cell line, censored GI50 values): 5250 nM
GI50 ([2]; AU565, AU565 cell line, censored GI50 values): 4.27 nM
GI50 ([2]; AU565, cell line AU565): 4.27 nM
GI50 ([2]; BT-20, BT20 cell line, censored GI50 values): 8.13 nM
GI50 ([2]; BT-20, cell line BT20): 8.13 nM
GI50 ([2]; BT-474, BT474 cell line, censored GI50 values): 8.32 nM
GI50 ([2]; BT-474, cell line BT474): 8.32 nM
GI50 ([2]; BT-483, BT483 cell line, censored GI50 values): 5370 nM
GI50 ([2]; BT-483, cell line BT483): 5370 nM
GI50 ([2]; BT-549, BT549 cell line, censored GI50 values): 6.03 nM
GI50 ([2]; BT-549, cell line BT549): 6.03 nM
GI50 ([2]; CAMA-1, CAMA1 cell line, censored GI50 values): 1 nM
GI50 ([2]; CAMA-1, cell line CAMA1): 1 nM
GI50 ([2]; HCC38, HCC38 cell line, censored GI50 values): 2.82 nM
GI50 ([2]; HCC38, cell line HCC38): 2.82 nM
GI50 ([2]; HCC70, HCC70 cell line, censored GI50 values): 1.41 nM
GI50 ([2]; HCC70, cell line HCC70): 1.41 nM
GI50 ([2]; HCC202, HCC202 cell line, censored GI50 values): 20000 nM
GI50 ([2]; HCC202, cell line HCC202): 20000 nM
GI50 ([2]; HCC1143, HCC1143 cell line, censored GI50 values): 9.77 nM
GI50 ([2]; HCC1143, cell line HCC1143): 9.77 nM
GI50 ([2]; HCC1187, HCC1187 cell line, censored GI50 values): 2.19 nM
GI50 ([2]; HCC1187, cell line HCC1187): 2.19 nM
GI50 ([2]; HCC1395, HCC1395 cell line, censored GI50 values): 12 nM
GI50 ([2]; HCC1395, cell line HCC1395): 12 nM
GI50 ([2]; HCC1419, HCC1419 cell line, censored GI50 values): 11000 nM
GI50 ([2]; HCC1419, cell line HCC1419): 11000 nM
GI50 ([2]; HCC1428, HCC1428 cell line, censored GI50 values): 58.9 nM
GI50 ([2]; HCC1428, cell line HCC1428): 58.9 nM
GI50 ([2]; HCC1500, HCC1500 cell line, censored GI50 values): 3.24 nM
GI50 ([2]; HCC1500, cell line HCC1500): 3.24 nM
GI50 ([2]; HCC1806, HCC1806 cell line, censored GI50 values): 4.9 nM
GI50 ([2]; HCC1806, cell line HCC1806): 4.9 nM
GI50 ([2]; HCC1937, HCC1937 cell line, censored GI50 values): 309 nM
GI50 ([2]; HCC1937, cell line HCC1937): 309 nM
GI50 ([2]; HCC1954, HCC1954 cell line, censored GI50 values): 1.95 nM
GI50 ([2]; HCC1954, cell line HCC1954): 1.95 nM
GI50 ([2]; HCC2185 cell line, censored GI50 values): 9120 nM
GI50 ([2]; HCC3153 cell line, censored GI50 values): 6.17 nM
GI50 ([2]; LY2 cell line, censored GI50 values): 6.03 nM
GI50 ([2]; MCF7, MCF7 cell line, censored GI50 values): 0.363 nM
GI50 ([2]; MCF7, cell line MCF7): 0.363 nM
GI50 ([2]; MDA-MB-134-VI, MDAMB134VI cell line, censored GI50 values): 1.62 nM
GI50 ([2]; MDA-MB-157, MDAMB157 cell line, censored GI50 values): 4.9 nM
GI50 ([2]; MDA-MB-157, cell line MDAMB157): 4.9 nM
GI50 ([2]; MDA-MB-231, MDAMB231 cell line, censored GI50 values): 0.457 nM
GI50 ([2]; MDA-MB-231, cell line MDAMB231): 0.457 nM
GI50 ([2]; MDA-MB-361, MDAMB361 cell line, censored GI50 values): 2.29 nM
GI50 ([2]; MDA-MB-361, cell line MDAMB361): 2.29 nM
GI50 ([2]; MDA-MB-415, MDAMB415 cell line, censored GI50 values): 8.13 nM
GI50 ([2]; MDA-MB-415, cell line MDAMB415): 8.13 nM
GI50 ([2]; MDA-MB-436, MDAMB436 cell line, censored GI50 values): 5.75 nM
GI50 ([2]; MDA-MB-436, cell line MDAMB436): 5.75 nM
GI50 ([2]; MDA-MB-453, MDAMB453 cell line, censored GI50 values): 7.76 nM
GI50 ([2]; MDA-MB-453, cell line MDAMB453): 7.76 nM
GI50 ([2]; MDA-MB-468, MDAMB468 cell line, censored GI50 values): 1.32 nM
GI50 ([2]; MDA-MB-468, cell line MDAMB468): 1.32 nM
GI50 ([2]; SK-BR-3, SKBR3 cell line, censored GI50 values): 10.5 nM
GI50 ([2]; SK-BR-3, cell line SKBR3): 10.5 nM
GI50 ([2]; SUM52PE, SUM52PE cell line, censored GI50 values): 2.95 nM
GI50 ([2]; SUM52PE, cell line SUM52PE): 2.95 nM
GI50 ([2]; SUM149PT, SUM149PT cell line, censored GI50 values): 5.5 nM
GI50 ([2]; SUM149PT, cell line SUM149PT): 5.5 nM
GI50 ([2]; SUM185PE, SUM185PE cell line, censored GI50 values): 8.51 nM
GI50 ([2]; SUM185PE, cell line SUM185PE): 8.51 nM
GI50 ([2]; SUM225CWN, SUM225CWN cell line, censored GI50 values): 20000 nM
GI50 ([2]; SUM225CWN, cell line SUM225CWN): 20000 nM
GI50 ([2]; SUM1315MO2, SUM1315MO2 cell line, censored GI50 values): 6.03 nM
GI50 ([2]; SUM-159-PT, SUM159PT cell line, censored GI50 values): 6.92 nM
GI50 ([2]; SUM-159-PT, cell line SUM159PT): 6.92 nM
GI50 ([2]; T47D, T47D cell line, censored GI50 values): 7.94 nM
GI50 ([2]; T47D, cell line T47D): 7.94 nM
GI50 ([2]; UACC-812, UACC812 cell line, censored GI50 values): 5890 nM
GI50 ([2]; UACC-812, cell line UACC812): 5890 nM
GI50 ([2]; UACC-893, UACC893 cell line, censored GI50 values): 6.31 nM
GI50 ([2]; UACC-893, cell line UACC893): 6.31 nM
GI50 ([2]; ZR-75-1, ZR751 cell line, censored GI50 values): 295 nM
GI50 ([2]; ZR-75-1, cell line ZR751): 295 nM
GI50 ([2]; cell line 600MPE): 5250 nM
GI50 ([2]; cell line HCC2185): 9120 nM
GI50 ([2]; cell line HCC3153): 6.17 nM
GI50 ([2]; cell line LY2): 6.03 nM
GI50 ([2]; cell line MDAMB134V): 1.62 nM
GI50 ([2]; cell line SUM1315MO): 6.03 nM
subtype-specific response (sensitivity by transcriptional subtype) ([3]; GI50 across subtypes): more active against basal and claudin-low cell lines
Subtype specificity ([3]; Table 6, most sensitive subtype, FDR p<0.20): Basal + Claudin-low
